# Laboratory results published in ChEMBL document CHEMBL1201862, “PubChem BioAssay data set” (2004).
#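 Results reflect a 48-hour exposure of cells in 96-well plates to compound at five concentrations. The concentration for 50% growth inhibition is given as GI50.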 The source made the active and inactive calls. Rule as the data show it: active = GI50 up to about 1.1 µM and inactive = higher. Where a SMILES comes first, the peptide text is derived from it. [ ]: non-standard residue; d: D form. The star is where a group is joined. Phe(4-NO2) = N[CH](Cc1ccc([N+](=O)[O-])cc1)C(=O)O; Boc = CC(C)(C)OC(=O)*; OBn = c1ccc(CO*)cc1
# What was measured:
# Test in all cases: inhibition of tumour cell growth, NCI panel, 48 h
# KM12 = test system: KM12
# UACC-257 = test system: UACC-257
# 786-0 = test system: 786-0
# HOP-62 = test system: HOP-62
# MOLT-4 = test system: MOLT-4
# HCT-15 = test system: HCT-15
# SW-620 = test system: SW-620
# Malme-3M = test system: Malme-3M
# OVCAR-8 = test system: OVCAR-8
# EKVX = test system: EKVX
# DU-145 = test system: DU-145
# MDA-N = test system: MDA-N
# HT-29 = test system: HT-29
# SNB-19 = test system: SNB-19
# SK-MEL-5 = test system: SK-MEL-5
# HL-60 = test system: HL-60
# Hs-578T = test system: Hs-578T
# OVCAR-4 = test system: OVCAR-4
# NCI-H460 = test system: NCI-H460
Structure (SMILES),GI50 (KM12),GI50 (UACC-257),GI50 (786-0),GI50 (HOP-62),GI50 (MOLT-4),GI50 (HCT-15) [µM],GI50 (SW-620),GI50 (Malme-3M),GI50 (OVCAR-8),GI50 (EKVX),GI50 (DU-145),GI50 (MDA-N),GI50 (HT-29),GI50 (SNB-19),GI50 (SK-MEL-5),GI50 (HL-60),GI50 (Hs-578T),GI50 (OVCAR-4),GI50 (NCI-H460)
N#CC(C#N)=NNc1ccc2cn[nH]c2c1,> 100 µM (inactive),20.4 µM (inactive),43.6 µM (inactive),> 100 µM (inactive),21.5 µM (inactive),83.2,41.1 µM (inactive),28.4 µM (inactive),51.4 µM (inactive),47.3 µM (inactive),29 µM (inactive),43.9 µM (inactive),91.2 µM (inactive),> 100 µM (inactive),74.5 µM (inactive),18.6 µM (inactive),24.8 µM (inactive),30.7 µM (inactive),57.3 µM (inactive)
C=CCc1c(O)c2ccccc2[nH]c1=O,> 100 µM (inactive),> 100 µM (inactive),> 100 µM (inactive),> 100 µM (inactive),> 100 µM (inactive),> 100,> 100 µM (inactive),> 100 µM (inactive),> 100 µM (inactive),> 100 µM (inactive),> 100 µM (inactive),> 100 µM (inactive),> 100 µM (inactive),> 100 µM (inactive),> 100 µM (inactive),> 100 µM (inactive),> 100 µM (inactive),> 100 µM (inactive),> 100 µM (inactive)
CN(C)/C=C1\CCc2ccc([N+](=O)[O-])cc2C1=O,55.8 µM (inactive),19.1 µM (inactive),48.6 µM (inactive),> 100 µM (inactive),25.1 µM (inactive),44,32.1 µM (inactive),33 µM (inactive),45.7 µM (inactive),> 100 µM (inactive),> 100 µM (inactive),19.2 µM (inactive),24.3 µM (inactive),> 100 µM (inactive),92.9 µM (inactive),25.7 µM (inactive),> 100 µM (inactive),17.9 µM (inactive),28.4 µM (inactive)
CC/C(=N/O)c1ccc(Br)s1,> 100 µM (inactive),> 100 µM (inactive),> 100 µM (inactive),> 100 µM (inactive),44.7 µM (inactive),> 100,> 100 µM (inactive),> 100 µM (inactive),> 100 µM (inactive),5.61 µM (inactive),> 100 µM (inactive),> 100 µM (inactive),> 100 µM (inactive),66.1 µM (inactive),> 100 µM (inactive),28.6 µM (inactive),95.1 µM (inactive),> 100 µM (inactive),> 100 µM (inactive)
COc1ccccc1Nc1nc(N)nc(N)c1N,> 100 µM (inactive),60.3 µM (inactive),33.4 µM (inactive),> 100 µM (inactive),14.7 µM (inactive),62.1,27.2 µM (inactive),> 100 µM (inactive),> 100 µM (inactive),> 100 µM (inactive),> 100 µM (inactive),17.6 µM (inactive),45.4 µM (inactive),> 100 µM (inactive),54.1 µM (inactive),29.1 µM (inactive),> 100 µM (inactive),> 100 µM (inactive),38.5 µM (inactive)
COc1cc(C2SCC(=O)N2c2ccc(Cl)c(Cl)c2)cc(OC)c1OC (stereo not given),12.7 µM (inactive),32.6 µM (inactive),> 55.6 µM (inactive),24.2 µM (inactive),14.7 µM (inactive),20.6,48 µM (inactive),> 100 µM (inactive),60.5 µM (inactive),25.5 µM (inactive),> 38.5 µM (inactive),13 µM (inactive),23.1 µM (inactive),> 100 µM (inactive),21.7 µM (inactive),19.5 µM (inactive),> 100 µM (inactive),27.4 µM (inactive),30.2 µM (inactive)
O=C(NCCN1CCCC1)c1cn2c(ccc3sc4ccccc4c(=O)c32)n1,16.7 µM (inactive),17.7 µM (inactive),1.41 µM (inactive),11.7 µM (inactive),0.422 µM (active),10.9,1.51 µM (inactive),16 µM (inactive),4.95 µM (inactive),15.6 µM (inactive),13.2 µM (inactive),16.2 µM (inactive),3.18 µM (inactive),13.7 µM (inactive),10.3 µM (inactive),5.61 µM (inactive),17 µM (inactive),12.3 µM (inactive),1.01 µM (active)
CCOC(=O)c1c(CN2CCCC2)n(-c2ccccc2)c2cc(Br)c(O)cc12,16.8 µM (inactive),17.5 µM (inactive),16.7 µM (inactive),13.3 µM (inactive),17 µM (inactive),20.8,17.7 µM (inactive),19.5 µM (inactive),22.9 µM (inactive),17 µM (inactive),19.6 µM (inactive),17.2 µM (inactive),5.86 µM (inactive),16.5 µM (inactive),13.4 µM (inactive),9.44 µM (inactive),26.4 µM (inactive),14.3 µM (inactive),17 µM (inactive)
CN(C)CCCSc1nc2c(c(=N)n1-c1ccccc1)c(=S)n(-c1ccccc1)c(=S)n2-c1ccccc1,1.83 µM (inactive),1.77 µM (inactive),1.27 µM (inactive),1.8 µM (inactive),0.789 µM (active),1.61,1.79 µM (inactive),2.04 µM (inactive),1.77 µM (inactive),1.91 µM (inactive),1.67 µM (inactive),1.71 µM (inactive),2.17 µM (inactive),2.51 µM (inactive),1.91 µM (inactive),0.798 µM (active),3.12 µM (inactive),1.79 µM (inactive),1.82 µM (inactive)
O=C1/C(=C\c2cccc(Oc3ccccc3)c2)SC(c2ccccc2)N1c1ccc(Cl)cc1 (stereo not given),12.6 µM (inactive),41.9 µM (inactive),52.4 µM (inactive),> 57.1 µM (inactive),20.4 µM (inactive),7.55,27.7 µM (inactive),45.6 µM (inactive),32.9 µM (inactive),80.7 µM (inactive),65.8 µM (inactive),4.79 µM (inactive),30.8 µM (inactive),59.4 µM (inactive),4.79 µM (inactive),10.1 µM (inactive),> 67.9 µM (inactive),17.4 µM (inactive),24.5 µM (inactive)
Cc1c(O)oc2ccccc2c1=O,> 100 µM (inactive),> 100 µM (inactive),> 100 µM (inactive),> 100 µM (inactive),> 100 µM (inactive),> 100,> 100 µM (inactive),> 100 µM (inactive),> 100 µM (inactive),> 100 µM (inactive),> 100 µM (inactive),> 100 µM (inactive),> 100 µM (inactive),> 100 µM (inactive),> 100 µM (inactive),> 100 µM (inactive),> 100 µM (inactive),> 100 µM (inactive),> 100 µM (inactive)
Oc1[nH]c(Nc2ccc(F)c(Cl)c2)nc2ncnc1-2,> 100 µM (inactive),> 100 µM (inactive),82 µM (inactive),> 100 µM (inactive),7.29 µM (inactive),> 100,> 100 µM (inactive),> 100 µM (inactive),> 100 µM (inactive),> 100 µM (inactive),> 100 µM (inactive),> 100 µM (inactive),> 100 µM (inactive),> 100 µM (inactive),> 100 µM (inactive),> 100 µM (inactive),29.6 µM (inactive),> 100 µM (inactive),> 100 µM (inactive)
O=C1SC(SCc2ccccc2)=NC12CC2c1ccccc1 (stereo not given),17.7 µM (inactive),16.8 µM (inactive),19.4 µM (inactive),29 µM (inactive),1.34 µM (inactive),20.4,22.4 µM (inactive),17.7 µM (inactive),19.4 µM (inactive),20.2 µM (inactive),29 µM (inactive),20.9 µM (inactive),21.3 µM (inactive),26.7 µM (inactive),17.8 µM (inactive),3.56 µM (inactive),24.3 µM (inactive),16 µM (inactive),18.7 µM (inactive)
COc1ccc(-c2nc3ccc(C)cc3o2)c(OC)c1,19.2 µM (inactive),17.7 µM (inactive),21.4 µM (inactive),26.8 µM (inactive),11.3 µM (inactive),22.5,29.3 µM (inactive),21.2 µM (inactive),26.4 µM (inactive),19.6 µM (inactive),25.8 µM (inactive),23.9 µM (inactive),5.28 µM (inactive),7.41 µM (inactive),19.3 µM (inactive),20.4 µM (inactive),25.8 µM (inactive),26.9 µM (inactive),2.93 µM (inactive)
COC(=O)CCC(NC(=O)OC(C)(C)C)C(=O)NC(Cc1ccc([N+](=O)[O-])cc1)C(=O)NCC(=O)OCc1ccccc1 (stereo not given) (Boc-Glu(OMe)-[Phe(4-NO2)]-Gly-OBn; configuration not given here),> 100 µM (inactive),> 100 µM (inactive),45.5 µM (inactive),27.8 µM (inactive),> 100 µM (inactive),> 100,> 100 µM (inactive),> 100 µM (inactive),46.7 µM (inactive),> 60.8 µM (inactive),> 100 µM (inactive),> 100 µM (inactive),> 100 µM (inactive),> 55.7 µM (inactive),> 100 µM (inactive),> 74.1 µM (inactive),23 µM (inactive),> 92.3 µM (inactive),> 100 µM (inactive)
